Results reported in patent US20050113413A1, “Naphthalene-1,5-disulfonic acid salts of a substituted 4-amino-1-(pyridylmethyl)piperidine compound” (priority 2003, published 2005).

Key:
[1] = tested on: rat bladder (volume-induced bladder contractions); assay: In vivo rat bladder assay (volume-induced bladder contraction amplitude); set-up: species or system Sprague-Dawley rats; conditions: anesthetized female rats, intravenous, normalized to atropine response
Protocol: Female Sprague-Dawley rats (Harlan, Indianapolis, Ind.) weighing 200 to 300 g were anesthetized with urethane (1.5 g/kg, s.c., Sigma, St. Louis, Mo.), with a supplement of 0.25 g/kg, s.c. urethane as needed. Urethane was administered at a concentration of 0.25 g/mL.
Rats were prepared for surgery by shaving the neck and abdomen and cleansing with ethanol wipes. First, an incision was made on the ventral surface. An intravenous catheter was placed by isolating and ligating the femoral vein. […]
Thereafter, an intravenous dose of the test compound was administered and changes in VIBCAmp were recorded for 15 minutes. Atropine (0.1 mg/kg) was then administered intravenously (1 mL/kg) as a positive control and VIBCAmp and data was recorded for an additional 15 minutes. […]
Alternatively, after the vehicle, increasing cumulative intravenous doses of the test compound were administered at 15 minute intervals (1 mL/kg) and changes in VIBCAmp were recorded for 15 minutes. […]
The average VIBCAmp during the 5-15 minute period after test compound and atropine was determined and subtracted from the average VIBCAmp during the 5-15 minute post-vehicle period to obtain the test compound or atropine-induced change in VIBCAmp. […]

[2] = target: T1, hM3 muscarinic receptor subtype (Homo sapiens, UniProt P20309); assay: Radioligand binding assay ([3H]NMS displacement), hM3 relative to hM2; conditions: ratio of Ki values
T1 construct: expressed in transfected cells; membranes prepared
Protocol: CHO (Chinese hamster ovary) cell lines stabilely expressing cloned human hM1, hM2, hM3 and hM4 muscarinic receptor subtypes, respectively, were grown to near confluency in medium consisting of HAM's F-12 supplemented with 10% FBS (Fetal Bovine Serum) and 250 μg/mL Geneticin. The cells were grown in a 5% CO2, 37° C. incubator and lifted with dPBS+2 mM EDTA. Cells were collected by 5 minute centrifugation at 650×g, and cell pellets were either stored frozen at −80° C. or membranes were prepared immediately. For membrane preparation, cell pellets were resuspended in lysis buffer and homogenized with a Polytron PT-2100 tissue disrupter (Kinematica AG; 20 seconds×2 bursts). Crude membranes were centrifuged at 40,000×g for 15 minutes at 4° C. […] Protein concentration of the membrane suspension was determined by the method of Lowry, O. et al., (1951) Journal of Biochemistry: 193, 265. […]
Radioligand binding assays were performed in 96-well microtiter plates in a total assay volume of 100 μL. […] Filter plates were rinsed three times with wash buffer (10 mM HEPES) to remove unbound radioactivity. […] The plates were then counted in a PerkinElmer Topcount liquid scintillation counter (PerkinElmer Inc., Wellesley, Mass.). Binding data were analyzed by nonlinear regression analysis with the GraphPad Prism Software package (GraphPad Software, Inc., San Diego, Calif.) using the one-site competition model. […]

T1 sequence (P20309 whole entry): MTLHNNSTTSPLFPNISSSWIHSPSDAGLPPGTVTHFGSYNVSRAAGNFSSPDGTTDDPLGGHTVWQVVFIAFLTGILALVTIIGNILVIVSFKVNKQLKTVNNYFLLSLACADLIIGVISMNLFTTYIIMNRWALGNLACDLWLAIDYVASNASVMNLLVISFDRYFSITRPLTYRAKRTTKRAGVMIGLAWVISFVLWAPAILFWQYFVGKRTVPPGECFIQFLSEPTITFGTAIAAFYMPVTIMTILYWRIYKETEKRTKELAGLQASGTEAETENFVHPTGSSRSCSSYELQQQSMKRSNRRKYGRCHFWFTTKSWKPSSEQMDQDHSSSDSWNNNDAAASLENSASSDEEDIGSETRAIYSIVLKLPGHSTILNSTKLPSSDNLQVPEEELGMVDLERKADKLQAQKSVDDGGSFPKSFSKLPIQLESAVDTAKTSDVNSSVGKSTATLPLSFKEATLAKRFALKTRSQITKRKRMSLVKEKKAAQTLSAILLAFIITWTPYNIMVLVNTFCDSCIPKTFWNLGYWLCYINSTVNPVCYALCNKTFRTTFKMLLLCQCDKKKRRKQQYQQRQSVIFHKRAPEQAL

COc1ccncc1CN1CCC(N(CCCCCCCN2CC[C@@H](C(C(N)=O)(c3ccccc3)c3ccccc3)C2)C(C)C)CC1 [Example 6]
ID50 (dose required to produce 50% of the maximal response), VIBCAmp [1]: less than or equal to 0.1 mg/kg
hM3/hM2 ratio [2]: greater than 40
